{"source": "patent US12662530B2", "about": "“Anti-ADM-antibodies binding to the free N-terminus for accelerated transition of ADM-Gly to bio-ADM in patients with ADM-Gly/ bio-ADM ratio above a threshold and combination with vitamin C” (SphingoTec GmbH, priority 2020, dated 2026)", "key": {"MR-proADM/bio-ADM ratio": {"tested_on": "MR-proADM/bio-ADM ratio", "test": "MR-proADM/bio-ADM ratio in samples of healthy subjects after administration", "type": "in vivo, human", "conditions": "Table 5, n 18", "procedure": "(§1) Critically ill subjects were from the AdrenOSS-I cohort described in example 7. Healthy and healthy HAM8101 treated subjects were from the study cohort described in example 6 (Geven et al. 2017. Intensive Care Med Exp 5 (Suppl 2): 0427). Bio-ADM was determined as described by Weber et al., 2017. ADM-Gly was determined as described in example 4.\nThe same patients as described in example 8 were also analysed for their MR-proADM/ADM-NH2 ratio."}, "[1]": {"tested_on": "ADM-Gly to bio-ADM conversion", "type": "in vivo", "conditions": "for ADM-Gly/bioADM Ratio: Table 4, n 9", "text": "ADM-Gly was quantified as based on Weber et al. (Weber et al. 2017. JALM 2(2): 222-233) for bioactive ADM with the following modifications: the tracer-antibody used for ADM-Gly detection, labelled with MACN-acridinium-NHS, was directed to the C-terminal glycine of ADM-Gly. The assay was calibrated with synthetic ADM-Gly. […] All determined ADM-Gly concentrations were corrected for cross-reactivity as follows: For each ADM-Gly quantification additional quantification of bio-ADM in corresponding samples was performed using the Sphingotest® bio-ADM immunoassay. The corresponding bio-ADM values were used to determine the signal (RLU) generated with the antibody directed to C-terminal glycine of ADM on a bio-ADM calibration curve. The determined signal (RLU) was used to calculate the false-positive ADM-Gly concentration (pg/mL) using the ADM-Gly calibration curve. This concentration was subtracted from the initially determined ADM-Gly concentration. […]\nas §1"}, "[2]": {"test": "Single escalating i.v. doses in healthy male subjects (phase I): ADM values and safety", "type": "in vivo, human", "procedure": "The study was described in Geven et al. (Geven et al. 2017. Intensive Care Med Exp 5 (Suppl 2): 0427). Briefly, the study was conducted in healthy male subjects as a randomized, double-blind, placebo-controlled, study with single escalating doses of NT-H antibody (HAM8101) administered as intravenous (i.v.) infusion in 3 sequential groups of 8 healthy male subjects each (1st group 0.5 mg/kg, 2nd group 2 mg/kg, 3rd group 8 mg/kg) of healthy male subjects (n=6 active, n=2 placebo for each group). The main inclusion criteria were written informed consent, age 18-35 years, agreement to use a reliable way of contraception and a BMI between 18 and 30 kg/m^2. Subjects received a single i.v. dose of NT-H antibody (HAM8101) (0.5 mg/kg; 2 mg/kg; 8 mg/kg) or placebo by slow infusion over a 1-hour period in a research unit."}, "[3]": {"tested_on": "CLP-induced sepsis in mice", "conditions": "pre-treatment, cited from earlier work"}, "recombinant human PAM": {"tested_on": "recombinant human PAM", "test": "Formation of bio-ADM from ADM-Gly by recombinant human PAM", "type": "biochemical", "procedure": "The formation of bio-ADM from c-terminally glycinated 1-53 Adrenomedullin (ADM-Gly) by recombinant human PAM and the influence of the N-terminal anti-Adrenomedullin antibodies on the bio-ADM formation from ADM-Gly by PAM was investigated.\nIn a first step, 200 μl per well ADM-Gly (50 ng/mL) dissolved in buffer (300 mM potassium-phosphate, 100 mM NaCl, 10 mM Na-EDTA, 5 g/L BSA, pH 7.0) was added to microtiter plate wells that were precoated with an anti-MR-ADM antibody, and were incubated for 1 h at 22° C. under agitation (600 rpm). Unbound material was removed by washing. In a second step, varying concentrations (0-100 μg/mL) of either N-terminal- (HAM8101), C-terminal anti-Adrenomedullin antibody specifically blocking the glycinated C-terminus of ADM-Gly or an unspecific antibody (control antibody) was added to the wells (200 μl per well) for 1 h at 22° C. under agitation (600 rpm). The respective antibodies were diluted in buffer as described above. Unbound antibodies were removed by washing. […] After a final washing step, the remaining chemiluminescence was measured for 1 s per well with a Centro LB 960 microtiter plate luminescence reader (Berthold Technologies). To evaluate the velocity of the enzyme PAM, the signal for bio-ADM measured at t=0 minutes was subtracted from the signal for bio-ADM at t=40 minutes for each antibody concentration. […]"}}, "note": "Where two headings read alike, the source gives them in different places."}
{"substance": "HAM8101: humanized N-terminal anti-ADM antibody, heavy chain SEQ ID No. 35, light chain SEQ ID No. 36", "values": [{"measurement": "MR-proADM/bio-ADM ratio", "setting": "MR-proADM/bio-ADM ratio; Healthy HAM8101 treated (1 h)", "result": 44.6}, {"measurement": "MR-proADM/bio-ADM ratio", "setting": "MR-proADM/bio-ADM ratio; Healthy HAM8101 treated (4 h)", "result": 42.4}, {"measurement": "ADM-Gly/bioADM Ratio", "setting": "[1]; Healthy HAM8101 treated (1 h)", "result": 0.61}, {"measurement": "ADM-Gly/bioADM Ratio", "setting": "[1]; Healthy HAM8101 treated (4 h)", "result": 0.33}, {"measurement": "ratio of ADM-Gly/bio-ADM", "setting": "[1]; group 1 (0.5 mg/kg), after 1 h, FIG. 12", "result": "approximately 0.75"}, {"measurement": "ratio of ADM-Gly/bio-ADM", "setting": "[1]; group 1 (0.5 mg/kg), after 24 hours", "result": "No further change"}, {"measurement": "ratio of ADM-Gly/bio-ADM", "setting": "[1]; group 1 (0.5 mg/kg), four hours after administration", "result": "approximately 0.38"}, {"measurement": "ratio of ADM-Gly/bio-ADM", "setting": "[1]; group 2 (2 mg/kg), after 1 h", "result": "~0.63"}, {"measurement": "ratio of ADM-Gly/bio-ADM", "setting": "[1]; group 2 (2 mg/kg), after 24 hours", "result": "No further change"}, {"measurement": "ratio of ADM-Gly/bio-ADM", "setting": "[1]; group 2 (2 mg/kg), four hours after administration", "result": "~0.25"}, {"measurement": "ratio of ADM-Gly/bio-ADM", "setting": "[1]; group 3 (8 mg/kg), after 1 h", "result": "~0.43"}, {"measurement": "ratio of ADM-Gly/bio-ADM", "setting": "[1]; group 3 (8 mg/kg), after 24 hours", "result": "approximately 0.5"}, {"measurement": "ratio of ADM-Gly/bio-ADM", "setting": "[1]; group 3 (8 mg/kg), four hours after administration", "result": "approximately 0.38"}, {"measurement": "time within which ADM-values rapidly increased after administration", "setting": "[2]; healthy human individuals, 0.5, 2, 8 mg/kg i.v., FIG. 10", "result": "≤ 1.5", "unit": "h"}, {"measurement": "safety: heart rate, mean arterial pressure, peripheral oxygen saturation, temperature", "setting": "[2]; healthy male subjects, single i.v. dose 0.5, 2, 8 mg/kg", "result": "did not influence heart rate, mean arterial pressure, peripheral oxygen saturation or temperature"}, {"measurement": "routine haematological and biochemical safety laboratory measurements", "setting": "[2]; healthy male subjects, single i.v. dose 0.5, 2, 8 mg/kg versus placebo", "result": "no significant differences between groups"}, {"measurement": "7-day survival", "setting": "[3]; repeated dose administration, control 0%", "result": 40, "unit": "%"}, {"measurement": "7-day survival", "setting": "[3]; single dose administration, control 10%", "result": 50, "unit": "%"}, {"measurement": "PAM activity compared to the reaction without antibody addition (set at 100%)", "setting": "recombinant human PAM; 10 μg/mL antibody, 40 minutes, 37° C., 2 mM L-Ascorbate", "result": 233, "unit": "%"}, {"measurement": "influence on conversion of ADM-Gly to bio-ADM by PAM", "setting": "recombinant human PAM; antibody 0-100 μg/mL, FIG. 7", "result": "significant accelerating effect"}]}
